Key:
Format in all cases: functional
ACHN = experiment: Cytotoxicity against Homo sapiens (human) ACHN cells after 48 hr by sulforhodamine B assay
786-0 = experiment: Cytotoxicity against Homo sapiens (human) 786-0 cells after 48 hr by sulforhodamine B assay; conditions: 786-0, 48 h
UACC-62 = experiment: Cytotoxicity against Homo sapiens (human) UACC62 cells after 48 hr by sulforhodamine B assay; conditions: UACC-62, 48 h
SK-MEL-28 = experiment: Cytotoxicity against Homo sapiens (human) SK-MEL-28 cells after 48 hr by sulforhodamine B assay; conditions: SK-MEL-28, 48 h
U-251 = experiment: Cytotoxicity against Homo sapiens (human) U251 cells after 48 hr by sulforhodamine B assay; conditions: U-251, 48 h
T47D = experiment: Cytotoxicity against Homo sapiens (human) T47D cells after 48 hr by sulforhodamine B assay
MDA-MB-435 = experiment: Cytotoxicity against Homo sapiens (human) MDA-MB-435 cells after 48 hr by sulforhodamine B assay; conditions: MDA-MB-435, 48 h
BT-549 = experiment: Cytotoxicity against Homo sapiens (human) BT549 cells after 48 hr by sulforhodamine B assay; conditions: BT-549, 48 h
Hs-578T = experiment: Cytotoxicity against Homo sapiens (human) Hs 578T cells after 48 hr by sulforhodamine B assay
[1] = Cytotoxicity against Homo sapiens (human) NCI-ADR-RES cells after 48 hr by sulforhodamine B assay
MDA-MB-231 = experiment: Cytotoxicity against Homo sapiens (human) MDA-MB-231 cells after 48 hr by sulforhodamine B assay; conditions: MDA-MB-231, 48 h
MCF7 = experiment: Cytotoxicity against Homo sapiens (human) MCF7 cells after 48 hr by sulforhodamine B assay; conditions: MCF7, 48 h
UO-31 = experiment: Cytotoxicity against Homo sapiens (human) UO31 cells after 48 hr by sulforhodamine B assay; conditions: UO-31, 48 h
PC-3 = experiment: Cytotoxicity against Homo sapiens (human) PC3 cells after 48 hr by sulforhodamine B assay; conditions: PC-3, 48 h
SN12C = experiment: Cytotoxicity against Homo sapiens (human) SN12C cells after 48 hr by sulforhodamine B assay
RXF 393 = experiment: Cytotoxicity against Homo sapiens (human) RXF393 cells after 48 hr by sulforhodamine B assay; conditions: RXF 393, 48 h
SF-268 [2] = experiment: Cytotoxicity against Homo sapiens (human) SF268 cells after 48 hr by sulforhodamine B assay; conditions: SF-268, 48 h
KM12 = experiment: Cytotoxicity against Homo sapiens (human) KM12 cells after 48 hr by sulforhodamine B assay; conditions: KM12, 48 h
HCT-15 = experiment: Cytotoxicity against Homo sapiens (human) HCT15 cells after 48 hr by sulforhodamine B assay; conditions: HCT-15, 48 h
COLO 205 = experiment: Cytotoxicity against Homo sapiens (human) COLO205 cells after 48 hr by sulforhodamine B assay; conditions: COLO 205, 48 h
NCI-H522 = experiment: Cytotoxicity against Homo sapiens (human) NCI-H522 cells after 48 hr by sulforhodamine B assay; conditions: NCI-H522, 48 h
NCI-H460 [3] = experiment: Cytotoxicity against Homo sapiens (human) NCI-H460 cells after 48 hr by sulforhodamine B assay; conditions: NCI-H460, 48 h
NCI-H322M = experiment: Cytotoxicity against Homo sapiens (human) NCI-H322M cells after 48 hr by sulforhodamine B assay
NCI-H23 = experiment: Cytotoxicity against Homo sapiens (human) NCI-H23 cells after 48 hr by sulforhodamine B assay; conditions: NCI-H23, 48 h
NCI-H226 = experiment: Cytotoxicity against Homo sapiens (human) NCI-H226 cells after 48 hr by sulforhodamine B assay; conditions: NCI-H226, 48 h
HOP-62 = experiment: Cytotoxicity against Homo sapiens (human) HOP62 cells after 48 hr by sulforhodamine B assay; conditions: HOP-62, 48 h
HOP-92 = experiment: Cytotoxicity against Homo sapiens (human) HOP92 cells after 48 hr by sulforhodamine B assay; conditions: HOP-92, 48 h
MOLT-4 = experiment: Cytotoxicity against Homo sapiens (human) MOLT4 cells after 48 hr by sulforhodamine B assay; conditions: MOLT-4, 48 h
CCRF-CEM = experiment: Cytotoxicity against Homo sapiens (human) CCRF-CEM cells after 48 hr by sulforhodamine B assay
SF-268 [4] = experiment: Cytotoxicity against Homo sapiens (human) SF268 cells assessed as cell growth at 10^-4 M after 48 hr by […] assay; conditions: SF-268, 48 h, read-out: Activity
NCI-H460 [5] = experiment: Cytotoxicity against Homo sapiens (human) NCI-H460 cells assessed as cell growth at 10^-4 M after 48 hr by Alamar blue assay; conditions: NCI-H460, 48 h, read-out: Activity
[6] = read-out: LC50 (the source's name)

In the case of `ClCc1cccc(Cn2cnc3nc(Cl)nc(Cl)c32)c1`, the GI50 (ACHN) is reported as 1120 nM, the TGI (ACHN) is reported as 2340 nM and the CC50 (ACHN; [6]) is reported as 4780 nM. For the same molecule, the GI50 (786-0) was 1580 nM, the LC50 (786-0) was 5370 nM and the TGI (786-0) was 2880 nM. The GI50 (UACC-62) was 1020 nM, the LC50 (concentration causing 50% net cell kill) (UACC-62) was 4670 nM and the TGI (UACC-62) was 2180 nM. For the same molecule, the GI50 (SK-MEL-28) was 170 nM, the LC50 (concentration killing 50% of cells) (SK-MEL-28) was 970 nM and the TGI (SK-MEL-28) was 400 nM. It also gave a GI50 (U-251) of 1380 nM, an LC50 (concentration killing 50% of cells) (U-251) of 5120 nM and a TGI (U-251) of 2690 nM. The GI50 (T47D) was 220 nM, the LC50 (T47D) was > 100000 nM and the TGI (T47D) was 610 nM. It also gave a GI50 (MDA-MB-435) of 1470 nM, an LC50 (MDA-MB-435) of 5240 nM and a TGI (MDA-MB-435) of 2810 nM. For the same molecule, the GI50 (BT-549) was 480 nM, the LC50 (50% lethal concentration) (BT-549) was 4160 nM and the TGI (BT-549) was 1730 nM. The GI50 (Hs-578T) was 1410 nM, the TGI (Hs-578T) was 2810 nM and the GI50 [1] was 1540 nM. The LC50 (concentration killing 50% of cells) [1] was > 100000 nM, the TGI [1] was 3090 nM and the GI50 (MDA-MB-231) was 460 nM. For the same molecule, the LC50 (MDA-MB-231) was 4160 nM, the TGI (MDA-MB-231) was 1730 nM and the GI50 (MCF7) was 1510 nM. The LC50 (concentration killing 50% of cells) (MCF7) was > 100000 nM, the TGI (MCF7) was 4070 nM and the GI50 (UO-31) was 17400 nM. The LC50 (concentration causing 50% net cell kill) (UO-31) was 72400 nM, the TGI (UO-31) was 35500 nM and the GI50 (PC-3) was 1540 nM. For the same molecule, the LC50 (concentration causing 50% cell kill) (PC-3) was 5370 nM, the TGI (PC-3) was 2880 nM and the GI50 (SN12C) was 1440 nM. The TGI (SN12C) was 2750 nM, the GI50 (RXF 393) was 1340 nM and the TGI (RXF 393) was 2630 nM. The CC50 (RXF 393; [6]) was 5120 nM, the GI50 (SF-268 [2]) was 2130 nM and the TGI (SF-268 [2]) was 3800 nM. It also gave a GI50 (KM12) of 16600 nM, a TGI (KM12) of 35500 nM and a CC50 (KM12; [6]) of 74100 nM. It also gave a GI50 (HCT-15) of 950 nM, a TGI (HCT-15) of 2130 nM and a CC50 (HCT-15; [6]) of 4570 nM. The GI50 (COLO 205) was 410 nM, the TGI (COLO 205) was 1650 nM and the GI50 (NCI-H522) was 1810 nM. For the same molecule, the TGI (NCI-H522) was 3540 nM, the CC50 (NCI-H522; [6]) was 6910 nM and the GI50 (NCI-H460 [3]) was 1690 nM. It also gave a TGI (NCI-H460 [3]) of 3090 nM, a CC50 (NCI-H460 [3]; [6]) of 5490 nM and a GI50 (NCI-H322M) of 14100 nM. For the same molecule, the TGI (NCI-H322M) was 26900 nM, the CC50 (NCI-H322M; [6]) was 52500 nM and the GI50 (NCI-H23) was 1540 nM. The TGI (NCI-H23) was 30900 nM, the CC50 (NCI-H23; [6]) was 5370 nM and the GI50 (NCI-H226) was 1280 nM. The TGI (NCI-H226) was 3630 nM, the CC50 (NCI-H226; [6]) was 20000 nM and the GI50 (HOP-62) was 2180 nM. For the same molecule, the TGI (HOP-62) was 3630 nM, the CC50 (HOP-62; [6]) was 6020 nM and the GI50 (HOP-92) was 1470 nM. The TGI (HOP-92) was 2750 nM, the CC50 (HOP-92; [6]) was 5240 nM and the GI50 (MOLT-4) was 1040 nM. The TGI (MOLT-4) was 2290 nM, the CC50 (MOLT-4; [6]) was 5010 nM and the GI50 (CCRF-CEM) was 1380 nM. It also gave a TGI (CCRF-CEM) of 2750 nM, a CC50 (CCRF-CEM; [6]) of 5490 nM and a growth at 100 µM (SF-268 [4]) of 0%. It also gave a growth at 100 µM (NCI-H460 [5]) of 0%.

From ChEMBL document CHEMBL3044672, “N9- and N7-(Chloromethyl Phenymethyl)Chloropurine Derivatives from , '-Dichloroxylenes: Synthesis and Anticancer Activity” (2005)
